Measured values published in the NIST ThermoML archive (doi:10.1016/j.fluid.2007.07.017).
Numbers after ± are expanded uncertainties.

Test: xn = mol fraction of the nth substance listed
Details: Liquid, Vibrating tube method

C=C [ethene] + CCCCO
Details	mass density [kg/m3]
283.65 K, x1 = 0.17	781.4 ± 0.6
283.65 K, x1 = 0.224	767.7 ± 0.5
283.65 K, x1 = 0.322	743.7 ± 0.6
283.65 K, x1 = 0.401	718.9 ± 0.7
283.65 K, x1 = 0.47	695.8 ± 0.8
283.65 K, x1 = 0.545	660.9 ± 1
283.65 K, x1 = 0.98	323.2 ± 1.2
283.65 K, x1 = 0.99	296.6 ± 1.2
283.65 K, x1 = 0.994	287 ± 1.2
290.8 K, x1 = 0.206	768.3 ± 0.6
290.8 K, x1 = 0.265	752.1 ± 0.6
290.8 K, x1 = 0.339	732 ± 0.6
290.8 K, x1 = 0.43	707.5 ± 0.8
290.8 K, x1 = 0.528	664.6 ± 0.9
290.8 K, x1 = 0.622	624.4 ± 1
290.8 K, x1 = 0.655	601.6 ± 1.2
290.8 K, x1 = 0.691	585 ± 1.8
290.8 K, x1 = 0.745	527.5 ± 2.4
